Reference: patent US10183014B2, “Ocular formulations for drug-delivery and protection of the anterior segment of the eye” (PanOptica, Inc., priority 2014, dated 2019)
Where “and” joins values, the source holds several entries; their conditions need not be identical. Identical values can stand only once. Like-named read-outs stand apart in the source and are kept apart here.

What was measured:
[1] = Ocular pharmacokinetics of formulations, Example 20-4; assay type: in vivo, Dutch Belted rabbits; settings: Dutch Belted, rabbit, topical, PSD 30 μm/XL, HPMC 0.08%, glycerol 2.5%, HEC 0.2%, VitK3 1 μM, pH ≈7.5, QD, Day 5, 1 hr post dose
Procedure: The study design (Table 18-1) consisted of forty-nine (49) Dutch Belted rabbits, each receiving a 30 μL bilateral topical ocular dose.
Ocular sampling occurred one hour following the first daily dose on Day 5 for all groups. Whole blood samples using K2EDTA as an anticoagulant were collected from all animals on Day 5, 1 hour post dose. The whole blood was placed on ice until samples were spun in a centrifuge to separate the plasma. Aqueous humor, conjunctiva, cornea, central retina, peripheral retina, central choroid, and peripheral choroid samples were collected following necropsy. Samples were then frozen at −70° C. or lower. For all Groups 1-16, plasma, central retina, central choroid, and cornea samples were assayed for PAN-90806.

[2] = Particle size distribution by laser diffraction light scattering; assay type: physicochemical; settings: API form Freebase
Procedure: Particle size distribution can be analyzed using laser diffraction light scattering, e.g., with a Horiba LA-950 V2. Generic assumptions are made in setting conditions and the refractive index value. The distributions are volume based. Sample density is adjusted to a generic range of percent transmission on the blue LED light source. A small sample cell (filled with water) can be used rather than the flow through cell, to minimize sample quantity.
Particle size distribution was analyzed using laser diffraction light scattering with a Horiba LA-950 V2. Generic assumptions were made in setting conditions and the refractive index value. The distributions were volume based. Sample density was adjusted to a generic range of percent transmission on the blue LED light source. A small sample cell (filled with water) was used rather than the flow through cell, to minimize sample quantity.

EGFR = target: T1, EGFR (Homo sapiens, UniProt P00533); assay: EGFR tyrosine phosphorylation assay in hTCEpi cells with a second active agent; assay type: cell-based; settings: vitamin K 50 μM, nicotinic acid 10 μM or nicotinamide 10 μM, 4 hours pre-treatment; EGF 50 ng/ml
T1 construct: endogenous in cells; host or cells: hTCEpi (immortalized corneal epithelial cells)
T1 sequence (P00533 25-1210): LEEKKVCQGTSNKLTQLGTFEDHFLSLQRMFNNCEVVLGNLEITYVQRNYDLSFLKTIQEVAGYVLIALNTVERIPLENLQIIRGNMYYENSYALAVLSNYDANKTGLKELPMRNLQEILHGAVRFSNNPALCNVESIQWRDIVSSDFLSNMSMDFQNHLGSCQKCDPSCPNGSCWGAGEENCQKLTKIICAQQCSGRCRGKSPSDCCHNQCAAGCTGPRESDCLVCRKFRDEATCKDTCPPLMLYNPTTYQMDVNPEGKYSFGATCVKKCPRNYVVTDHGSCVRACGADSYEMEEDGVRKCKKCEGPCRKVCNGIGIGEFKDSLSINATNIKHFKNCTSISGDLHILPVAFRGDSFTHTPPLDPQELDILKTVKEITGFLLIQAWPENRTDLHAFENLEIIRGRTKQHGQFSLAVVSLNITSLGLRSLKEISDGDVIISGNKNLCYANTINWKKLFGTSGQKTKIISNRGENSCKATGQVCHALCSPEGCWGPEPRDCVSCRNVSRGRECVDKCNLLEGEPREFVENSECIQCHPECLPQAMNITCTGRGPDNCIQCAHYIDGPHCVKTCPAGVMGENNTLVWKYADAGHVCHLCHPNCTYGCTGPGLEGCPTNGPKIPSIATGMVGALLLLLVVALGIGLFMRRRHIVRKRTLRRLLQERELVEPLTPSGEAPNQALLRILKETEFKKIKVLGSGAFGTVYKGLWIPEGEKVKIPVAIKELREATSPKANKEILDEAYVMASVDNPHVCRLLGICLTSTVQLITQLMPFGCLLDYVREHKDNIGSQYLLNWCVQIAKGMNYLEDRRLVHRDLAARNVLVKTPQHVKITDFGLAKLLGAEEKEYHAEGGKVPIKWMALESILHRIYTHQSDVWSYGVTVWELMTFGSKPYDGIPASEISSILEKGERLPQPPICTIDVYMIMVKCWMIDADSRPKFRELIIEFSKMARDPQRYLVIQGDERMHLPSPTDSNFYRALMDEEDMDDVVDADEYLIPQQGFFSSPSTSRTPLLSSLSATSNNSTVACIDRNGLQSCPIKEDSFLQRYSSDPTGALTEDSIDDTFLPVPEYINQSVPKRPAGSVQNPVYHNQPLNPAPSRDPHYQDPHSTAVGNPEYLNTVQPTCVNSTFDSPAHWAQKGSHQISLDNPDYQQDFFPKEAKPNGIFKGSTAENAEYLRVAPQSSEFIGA
Procedure: An EGFR tyrosine assay in corneal epithelial cells is run to determine if Vitamin K or nicotinic acid/nicotinamide can overcome inhibition of EGFR and if there is an increase in EGFR activity. […] Cells are harvested cells and immunoblotted for determination of phosphorylated EGFR (tyrosine 1068 and tyrosine 1045) and total EGFR concentration which was used to determine receptor activity (IC50).
The cells were then incubated with EGF (50 ng/ml) for 15 minutes. Cells were harvested and cell lysates were immunoblotted for determination of phosphorylated EGFR (tyrosine 1068 and tyrosine 1045) and total EGFR concentration.

[3] = excipient PVP K-29/32, roller speed high, media size 0.8 mm, particles under storage 1 day, RT
[4] = excipient PVP K-29/32, roller speed high, media size 0.8 mm, particles under storage 15 days, RT
[5] = excipient Pluronic F-127, milling not given, particles under storage 6 days, 40° C.
[6] = excipient Pluronic F-127, roller speed high, media size 0.8 mm, particles under storage 3 days, RT
[7] = excipient Pluronic F-127, roller speed low, media size 3 mm
[8] = excipient Tween 80, milling not given
[9] = excipient Tween 80, roller speed high, media size 0.8 mm, particles under storage 28 days, RT

Structure (SMILES): NC(=O)c1c(OCc2c(F)cc(Br)cc2F)nsc1NC(=O)NCCCCN1CCCC1 [Formula II]
- concentration at 1 h ([1]; central choroid, 4 mg/mL (30 μL per eye, bilateral), Group 4: 4 mg/mL FB suspension, read-out: Central Choroid concentration): 203 nM
- concentration at 1 h ([1]; central choroid, Group 5: 6 mg/mL FB suspension, read-out: Central Choroid concentration): 203 nM
- concentration at 1 h ([1]; central retina, 4 mg/mL (30 μL per eye, bilateral), Group 4: 4 mg/mL FB suspension, read-out: Central Retina concentration): 38.4 nM
- concentration at 1 h ([1]; central retina, Group 5: 6 mg/mL FB suspension, read-out: Central Retina concentration): 47.9 nM
- concentration at 1 h ([1]; cornea, 4 mg/mL (30 μL per eye, bilateral), Group 4: 4 mg/mL FB suspension, read-out: Cornea concentration): 21300 nM
- concentration at 1 h ([1]; cornea, Group 5: 6 mg/mL FB suspension, read-out: Cornea concentration): 23800 nM
- concentration at 1 h ([1]; plasma, 4 mg/mL (30 μL per eye, bilateral), Group 4: 4 mg/mL FB suspension, read-out: Plasma concentration): 3.27 nM
- concentration at 1 h ([1]; plasma, Group 5: 6 mg/mL FB suspension, read-out: Plasma concentration): 3.91 nM
- PSD (Particle Size Distribution) Mean [2, 3]: ~210 nm
- PSD (Particle Size Distribution) Median [2, 3]: ~150 nm
- PSD (Particle Size Distribution) Mean [2, 4]: ~170 nm
- PSD (Particle Size Distribution) Median [2, 4]: ~130 nm
- PSD (Particle Size Distribution) Mean [2, 5]: ~3100 nm
- PSD (Particle Size Distribution) Median [2, 5]: ~2500 nm
- PSD (Particle Size Distribution) Mean [2, 6]: ~130 nm
- PSD (Particle Size Distribution) Median [2, 6]: ~120 nm
- PSD (Particle Size Distribution) Mean [2, 7]: ~8100 nm and ~4700 nm
- PSD (Particle Size Distribution) Median [2, 7]: ~6200 nm and ~4400 nm
- PSD (Particle Size Distribution) Mean [2, 8]: ~2000 nm
- PSD (Particle Size Distribution) Median [2, 8]: ~300 nm
- PSD (Particle Size Distribution) Mean [2, 9]: ~370 nm
- PSD (Particle Size Distribution) Median [2, 9]: ~160 nm
- PSD (Particle Size Distribution) Median ([2]; excipient Tween 80, roller speed low, media size 3 mm): ~5500 nm and ~3900 nm and ~3700 nm and ~3500 nm

Structure (SMILES): NC(=O)c1cccnc1 [nicotinamide]
- Effect on Formula I or II compound-mediated EGFR inhibition (EGFR): overcome

Structure (SMILES): O=C(O)c1cccnc1 [nicotinic acid]
- Effect on Formula I or II compound-mediated EGFR inhibition (EGFR): overcome
